Results as given in patent publication US11198741B2, “Medicines for topic use based on sulfated hyaluronic acid as activating or inhibiting agent of the cytokine activity” (Fidia Farmaceutici S.p.A., priority 2009, dated 2021).

Biological target: T1, fibrin clot (Homo sapiens, UniProt P02671+P02675+P02679)
T1 sequence (P02671 20-644 isoform P02671-2 limits assumed): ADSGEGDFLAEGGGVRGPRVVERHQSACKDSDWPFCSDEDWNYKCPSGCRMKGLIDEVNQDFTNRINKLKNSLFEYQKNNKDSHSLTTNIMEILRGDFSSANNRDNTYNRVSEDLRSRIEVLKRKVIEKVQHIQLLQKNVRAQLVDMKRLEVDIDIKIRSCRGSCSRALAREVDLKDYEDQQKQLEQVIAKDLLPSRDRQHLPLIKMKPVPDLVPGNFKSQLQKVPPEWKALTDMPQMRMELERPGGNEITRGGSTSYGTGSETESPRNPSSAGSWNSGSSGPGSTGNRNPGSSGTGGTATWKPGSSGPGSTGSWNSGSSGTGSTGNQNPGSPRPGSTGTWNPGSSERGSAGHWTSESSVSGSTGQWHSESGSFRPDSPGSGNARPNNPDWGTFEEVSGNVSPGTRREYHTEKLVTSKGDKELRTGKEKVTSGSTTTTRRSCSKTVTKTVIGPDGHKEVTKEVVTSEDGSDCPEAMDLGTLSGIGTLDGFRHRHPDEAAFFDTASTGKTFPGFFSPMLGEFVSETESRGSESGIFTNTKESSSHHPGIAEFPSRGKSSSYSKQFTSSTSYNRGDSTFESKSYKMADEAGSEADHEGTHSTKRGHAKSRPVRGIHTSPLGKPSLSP
T1 sequence (P02675 45-491 limits assumed): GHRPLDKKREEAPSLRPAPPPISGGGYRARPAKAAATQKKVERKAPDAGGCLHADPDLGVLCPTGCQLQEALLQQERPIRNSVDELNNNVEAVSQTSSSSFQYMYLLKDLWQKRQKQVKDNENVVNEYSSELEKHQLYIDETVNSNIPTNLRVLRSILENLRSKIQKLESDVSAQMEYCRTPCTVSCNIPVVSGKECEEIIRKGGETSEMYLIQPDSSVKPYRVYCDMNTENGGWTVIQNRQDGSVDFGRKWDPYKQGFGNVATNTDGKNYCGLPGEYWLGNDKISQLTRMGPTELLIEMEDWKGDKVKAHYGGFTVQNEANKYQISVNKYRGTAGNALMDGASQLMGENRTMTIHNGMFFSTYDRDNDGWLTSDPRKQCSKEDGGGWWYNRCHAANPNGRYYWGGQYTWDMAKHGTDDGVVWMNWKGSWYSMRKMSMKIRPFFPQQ
T1 sequence (P02679 27-437 isoform P02679-2 limits assumed): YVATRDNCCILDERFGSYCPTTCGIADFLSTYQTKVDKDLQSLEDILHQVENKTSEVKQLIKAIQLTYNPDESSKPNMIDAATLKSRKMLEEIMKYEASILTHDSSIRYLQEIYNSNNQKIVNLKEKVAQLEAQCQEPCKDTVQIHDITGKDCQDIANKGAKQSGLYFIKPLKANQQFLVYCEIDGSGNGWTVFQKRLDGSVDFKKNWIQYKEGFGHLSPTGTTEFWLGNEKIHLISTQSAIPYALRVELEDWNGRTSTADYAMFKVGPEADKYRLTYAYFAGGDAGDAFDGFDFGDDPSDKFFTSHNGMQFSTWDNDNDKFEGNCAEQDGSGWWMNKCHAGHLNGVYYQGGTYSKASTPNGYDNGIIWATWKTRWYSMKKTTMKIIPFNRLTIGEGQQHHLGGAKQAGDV
Experiment: In vitro fibrinolytic activity: dissolution of fibrin clot in coagulated plasma (absorbance at 405 nm)
Assay type: biochemical
Settings: 37° C.
Protocol: The evaluation of the fibrinolytic properties of the products subjected to the test was compared with the acknowledged fibrinolytic activity of the plasmin. In particular, the dissolution rate of the fibrin network and formation of soluble products of the fibrin degradation (FDP), was evaluated.
In order to test the fibrinolytic effectiveness of the products subjected to testing, the blood samples were distributed in various test-tubes in which the clot formation was induced.
The formation of FDP was then evaluated after the addition of:
The freshly removed blood samples were distributed in various test-tubes containing sodium citrate in a ratio of 9:1. The test-tubes were immediately centrifuged at 3,000 rpm for 5 minutes. The plasma obtained was transferred to a new test-tube and immediately used for effecting the FDP evaluation.
Thrombin (300 mU/ml), preheated to 37° C. was added to the plasma samples, as activator of the fibrinogen in inducing the formation of the clot.
The following were added to the different cuvettes containing the fibrin clot:
a plasmin solution 0.5 mU, 5 mU, 50 mU, 500 mU and 1 U
solutions of HAS3 at concentrations of 25 mg/ml, 50 mg/ml, 100 mg/ml, 150 mg/ml and 200 mg/ml.
The absorbance variation at 405 nm for 60 sec. was evaluated spectrophotometrically for each cuvette. The reaction was left to proceed until the complete dissolution of the clot.
Coagulated plasma, plasmin solution and a solution of HAS3 200 KD and HAS3 20 KD were mixed in a ratio of 1:1 v/v and maintained at an operating temperature of 37° C.

sulfated hyaluronic acid degree 3 [HAS3]
fibrinolytic activity (expressed in mU equivalents of Plasmin) (25 mg/ml): 0.5 mU
fibrinolytic activity (expressed in mU equivalents of Plasmin) (50 mg/ml): 3 mU
fibrinolytic activity (expressed in mU equivalents of Plasmin) (100 mg/ml): 10 mU
fibrinolytic activity (expressed in mU equivalents of Plasmin) (150 mg/ml): 50 mU
fibrinolytic activity (expressed in equivalents of Plasmin) (200 mg/ml): 1.1 U
